Measured values taken from ChEMBL document CHEMBL4610123, “Structure-Based Drug Discovery of N-((R)-3-(7-Methyl-1H-indazol-5-yl)-1-oxo-1-(((S)-1-oxo-3-(piperidin-4-yl)-1-(4-(pyridin-4-yl)piperazin-1-yl)propan-2-yl)amino)propan-2-yl)-2'-oxo-1',2'-dihydrospiro[piperidine-4,4'-pyrido[2,3-d][1,3]oxazine]-1-carboxamide (HTL22562): A Calcitonin Gene-Related …” (J Med Chem, 2020).
Values after ≈ are worked out from the molar mass of the structure shown.

Experiments:
[1] = biological target: T1, Calcitonin-gene-related peptide receptor, CALCRL/RAMP1 (Homo sapiens, UniProt O60894+Q16602); test: Displacement of [3H]telcagepant from recombinant human CLR/RAMP1 expressed in Sf21 insect cell membranes measured after 60 mins by microbeta scintillation counting method
[2] = test system: CALCRL/RAMP2 (adrenomedullin AM1 receptor) (Homo sapiens); test: Antagonist activity at human adrenomedullin-1 receptor
[3] = Binding affinity to cynomolgus monkey CGRP receptor; parameters: species or system Macaca fascicularis
[4] = Volume of distribution at steady state in rat at 2 mg/kg, iv; assay type: ADME, organism-based; conditions: in vivo, read-out: Vdss
[5] = Efflux ratio of apparent permeability in MDCK cells; assay type: ADME, cell-based, Canis lupus familiaris; conditions: dog
[6] = Genotoxicity in Salmonella typhimurium TA98 by mini AMES test; assay type: toxicity; conditions: salmonella enterica subsp. enterica serovar typhimurium
[7] = Genotoxicity in Salmonella typhimurium TA1537 by mini AMES test; assay type: toxicity; conditions: salmonella enterica subsp. enterica serovar typhimurium
[8] = AUC (infinity) in rat at 1 mg/kg, sc; assay type: ADME, organism-based; parameters: dose 1 mg/kg, route subcutaneous, time infinity; conditions: in vivo
[9] = Stability of the compound in pH 8 solution at 50 degC assessed as loss of purity after 1 week; assay type: physicochemical; conditions: read-out: Drug degradation
Macaca fascicularis = organism: Macaca fascicularis; test: Antagonist activity at cynomolgus monkey CGRP receptor
hERG (KCNH2) = hERG (KCNH2) (Homo sapiens, UniProt Q12809); test: Inhibition of human ERG at 300 uM relative to control
[10] = Half life in dog at 0.5 mg/kg, iv; assay type: ADME, organism-based, Canis lupus familiaris; conditions: in vivo
[11] = Tmax in cynomolgus monkey at 0.013 mg/kg, sc; assay type: ADME, organism-based, Macaca fascicularis; conditions: in vivo
[12] = Stability of the compound in pH 5.5 solution at 50 degC assessed as loss of purity after 1 week; assay type: physicochemical; conditions: read-out: Drug degradation
[13] = Protein binding in dog plasma by high-throughput dialysis method; assay type: ADME, cell-free, Canis lupus familiaris; conditions: read-out: PPB (converted)
[14] = Lipophilicity, log D of the compound at pH 7.4; assay type: physicochemical; conditions: buffer
[15] = Oral bioavailability in cynomolgus monkey at 0.013 mg/kg; assay type: ADME, organism-based, Macaca fascicularis; conditions: in vivo
[16] = Half life in cynomolgus monkey at 0.013 mg/kg, sc; assay type: ADME, organism-based, Macaca fascicularis; conditions: in vivo
[17] = Apparent permeability across apical to basolateral side in MDCK cells; assay type: ADME, cell-based, Canis lupus familiaris; conditions: dog
[18] = Oral bioavailability in cynomolgus monkey at 0.5 mg/kg; assay type: ADME, organism-based, Macaca fascicularis; conditions: in vivo
[19] = Protein binding in rat plasma by high-throughput dialysis method; assay type: ADME, cell-free; conditions: read-out: PPB (converted)
[20] = Clearance in cynomolgus monkey at 0.5 mg/kg, iv; assay type: ADME, organism-based, Macaca fascicularis; conditions: in vivo
[21] = Genotoxicity in Salmonella typhimurium TA100 by mini AMES test; assay type: toxicity; conditions: salmonella enterica subsp. enterica serovar typhimurium
[22] = biological target: Amylin receptor AMY1, CALCR/RAMP1 (Homo sapiens) (UniProt P30988+O60894); test: Antagonist activity at human amylin-1 receptor; assay type: protein-complex assay
[23] = Half life in rat at 1 mg/kg, sc; assay type: ADME, organism-based; conditions: in vivo
[24] = Thermodynamic solubility of the compound at pH 6; assay type: physicochemical; conditions: buffer, read-out: Therm_solubility
[25] = Half life in dog hepatocytes; assay type: ADME, cell-based, Canis lupus familiaris, Hepatocyte
[26] = Half life in cynomolgus monkey at 0.5 mg/kg, sc; assay type: ADME, organism-based, Macaca fascicularis; conditions: in vivo
[27] = Half life in human hepatocytes; assay type: ADME, cell-based, Hepatocyte
[28] = biological target: T2, Mas-related G-protein coupled receptor member X2 (Homo sapiens) (UniProt Q96LB1); test: Agonist activity at MRGPX2 (unknown origin) at 10 uM relative to control
T2 sequence (whole entry): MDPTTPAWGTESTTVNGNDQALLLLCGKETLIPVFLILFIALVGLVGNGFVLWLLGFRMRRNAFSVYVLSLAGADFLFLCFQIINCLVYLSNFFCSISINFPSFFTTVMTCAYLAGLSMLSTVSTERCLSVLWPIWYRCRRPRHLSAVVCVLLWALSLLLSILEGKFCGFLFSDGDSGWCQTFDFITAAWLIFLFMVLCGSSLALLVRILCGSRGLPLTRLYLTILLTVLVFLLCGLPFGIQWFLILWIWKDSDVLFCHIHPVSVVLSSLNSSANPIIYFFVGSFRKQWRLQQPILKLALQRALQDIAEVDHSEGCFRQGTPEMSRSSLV

[29] = Stability of the compound in pH 3 solution at 50 degC assessed as loss of purity after 1 week; assay type: physicochemical; conditions: read-out: Drug degradation
Cytochrome P450 2C8 = biological target: T3, Cytochrome P450 2C8 (Homo sapiens, UniProt P10632); test: Inhibition of CYP2C8 (unknown origin); assay type: ADME
T3 sequence (P10632 whole entry): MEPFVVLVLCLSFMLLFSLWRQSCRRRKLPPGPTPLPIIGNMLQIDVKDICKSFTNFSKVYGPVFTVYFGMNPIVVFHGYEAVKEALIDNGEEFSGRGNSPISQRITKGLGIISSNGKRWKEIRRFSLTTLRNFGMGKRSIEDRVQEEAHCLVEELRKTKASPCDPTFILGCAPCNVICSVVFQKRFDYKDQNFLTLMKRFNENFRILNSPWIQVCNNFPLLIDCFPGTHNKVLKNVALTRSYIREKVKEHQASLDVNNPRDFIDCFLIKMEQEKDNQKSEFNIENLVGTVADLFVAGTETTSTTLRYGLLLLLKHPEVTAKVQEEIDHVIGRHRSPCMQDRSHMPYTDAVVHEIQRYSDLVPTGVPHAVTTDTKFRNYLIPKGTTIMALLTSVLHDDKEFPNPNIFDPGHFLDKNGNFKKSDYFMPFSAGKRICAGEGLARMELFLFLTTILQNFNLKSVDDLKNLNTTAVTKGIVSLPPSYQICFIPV

[30] = Solubility of the compound at pH 8.2 using amorphous form of sample; assay type: physicochemical; conditions: buffer
[31] = biological target: T1, Calcitonin-gene-related peptide receptor, CALCRL/RAMP1; test: Antagonist activity at human CGRP receptor in human SK-N-MC cells assessed as inhibition of CGRP-induced cAMP production preincubated for 30 mins followed by CGRP addition and measured after 30 mins by HTRF assay; assay type: functional, cell-based
Cytochrome P450 3A4 = Cytochrome P450 3A4 (Homo sapiens, UniProt P08684); test: Inhibition of CYP3A4 (unknown origin); assay type: ADME
[32] = Half life in rat hepatocytes; assay type: ADME, cell-based, Hepatocyte

Chain of Cytochrome P450 3A4 (P08684 whole entry): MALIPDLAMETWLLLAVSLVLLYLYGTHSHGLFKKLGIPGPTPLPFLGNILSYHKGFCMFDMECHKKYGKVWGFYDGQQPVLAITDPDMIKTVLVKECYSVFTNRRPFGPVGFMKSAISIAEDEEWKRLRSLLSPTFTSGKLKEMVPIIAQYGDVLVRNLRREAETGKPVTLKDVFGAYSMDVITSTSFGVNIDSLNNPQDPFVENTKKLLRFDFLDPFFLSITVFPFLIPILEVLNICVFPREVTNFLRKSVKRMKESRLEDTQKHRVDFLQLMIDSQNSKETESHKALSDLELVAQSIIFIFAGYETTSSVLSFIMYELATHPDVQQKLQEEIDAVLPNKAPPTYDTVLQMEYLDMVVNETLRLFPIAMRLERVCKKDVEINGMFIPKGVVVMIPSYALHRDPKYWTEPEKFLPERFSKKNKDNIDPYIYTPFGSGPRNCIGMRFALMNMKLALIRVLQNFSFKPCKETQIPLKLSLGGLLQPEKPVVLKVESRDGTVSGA
T1 sequence (O60894 whole entry): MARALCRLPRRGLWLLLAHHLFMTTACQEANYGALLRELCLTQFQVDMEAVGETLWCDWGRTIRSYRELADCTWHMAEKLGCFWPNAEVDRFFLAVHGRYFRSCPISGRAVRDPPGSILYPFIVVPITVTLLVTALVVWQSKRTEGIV
T1 sequence (Q16602 whole entry): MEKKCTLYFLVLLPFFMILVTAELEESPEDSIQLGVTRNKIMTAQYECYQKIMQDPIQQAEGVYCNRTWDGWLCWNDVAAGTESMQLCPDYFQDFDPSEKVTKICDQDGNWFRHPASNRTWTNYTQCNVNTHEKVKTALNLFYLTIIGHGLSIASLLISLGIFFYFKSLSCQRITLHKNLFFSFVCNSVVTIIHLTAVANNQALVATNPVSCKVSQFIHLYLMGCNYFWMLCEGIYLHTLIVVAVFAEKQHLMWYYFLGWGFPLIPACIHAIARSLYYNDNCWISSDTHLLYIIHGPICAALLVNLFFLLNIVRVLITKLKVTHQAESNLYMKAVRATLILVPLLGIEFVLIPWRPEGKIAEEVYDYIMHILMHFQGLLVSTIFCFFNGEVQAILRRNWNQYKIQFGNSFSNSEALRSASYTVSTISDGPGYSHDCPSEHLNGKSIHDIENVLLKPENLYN
Chain of hERG (KCNH2) (Q12809 whole entry): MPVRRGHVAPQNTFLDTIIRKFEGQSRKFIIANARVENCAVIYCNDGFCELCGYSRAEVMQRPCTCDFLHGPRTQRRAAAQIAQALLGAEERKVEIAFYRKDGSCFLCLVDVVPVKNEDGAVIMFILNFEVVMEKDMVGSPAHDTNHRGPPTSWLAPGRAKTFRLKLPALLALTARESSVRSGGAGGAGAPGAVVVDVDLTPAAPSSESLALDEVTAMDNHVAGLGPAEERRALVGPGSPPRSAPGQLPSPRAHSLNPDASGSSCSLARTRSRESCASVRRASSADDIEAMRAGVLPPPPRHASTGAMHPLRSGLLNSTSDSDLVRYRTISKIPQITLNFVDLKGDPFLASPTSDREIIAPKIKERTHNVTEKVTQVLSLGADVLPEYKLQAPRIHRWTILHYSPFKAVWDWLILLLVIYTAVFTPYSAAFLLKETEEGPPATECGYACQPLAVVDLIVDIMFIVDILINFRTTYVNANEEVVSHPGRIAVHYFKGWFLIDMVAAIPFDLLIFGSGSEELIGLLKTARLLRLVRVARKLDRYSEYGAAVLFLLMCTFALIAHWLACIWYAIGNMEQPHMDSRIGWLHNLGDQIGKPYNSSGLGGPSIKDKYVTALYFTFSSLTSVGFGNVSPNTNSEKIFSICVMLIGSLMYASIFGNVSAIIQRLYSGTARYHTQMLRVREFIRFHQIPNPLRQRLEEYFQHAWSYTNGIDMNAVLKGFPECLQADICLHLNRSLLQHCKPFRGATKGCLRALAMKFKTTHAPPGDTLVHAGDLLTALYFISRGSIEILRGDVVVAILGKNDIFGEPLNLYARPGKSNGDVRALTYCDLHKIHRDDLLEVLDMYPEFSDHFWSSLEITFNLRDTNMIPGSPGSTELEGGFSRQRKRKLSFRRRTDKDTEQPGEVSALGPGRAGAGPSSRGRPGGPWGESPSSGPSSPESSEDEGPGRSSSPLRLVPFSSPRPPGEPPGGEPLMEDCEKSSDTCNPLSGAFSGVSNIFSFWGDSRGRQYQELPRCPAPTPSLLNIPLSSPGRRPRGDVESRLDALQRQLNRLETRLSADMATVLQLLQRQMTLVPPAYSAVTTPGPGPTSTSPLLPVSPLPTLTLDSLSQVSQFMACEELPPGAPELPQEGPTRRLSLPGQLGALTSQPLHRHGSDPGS

Cc1cc(C[C@@H](NC(=O)N2CCC3(CC2)OC(=O)Nc2ncccc23)C(=O)N[C@@H](CC2CCNCC2)C(=O)N2CCN(c3ccncc3)CC2)cc2cn[nH]c12 [HTL-0022562]
Ki [1]: 0.0316 nM | pKb [2]: < 5.7 | pKi [3]: 11.3 | Vd [4]: 1 L/kg | efflux ratio [5]: > 2.7 | Activity [6]: Non-Toxic | Activity [7]: Non-Toxic | AUC(0-inf) [8]: 1280 ng·h/mL | degraded at 168 h [9]: 4.5% | pKb (Macaca fascicularis): 10.5 | inhibition at 300 µM (hERG (KCNH2)): 6% | half-life [10]: 1.2 h | Tmax [11]: 0.8 h | degraded at 168 h [12]: 0.8% | fraction unbound [13]: 0.77 | logD [14]: -0.4 | bioavailability [15]: 68% | half-life [16]: 3.5 h | Papp A→B [17]: 0.8 ×10⁻⁶ cm/s | bioavailability [18]: 117% | fraction unbound [19]: 0.59 | clearance [20]: 2 mL/min/kg | Activity [21]: Non-Toxic | pKb [22]: < 6.3 | half-life [23]: 2.6 h | solubility thermodynamic [24]: 2920 µM (≈ 2230 µg/mL) | half-life [25]: > 5 h | half-life [26]: 3.6 h | half-life [27]: > 5 h | Activity [28]: 80% | degraded at 168 h [29]: 0.4% | IC50 (Cytochrome P450 2C8): > 50.1 µM | solubility [30]: 9000 µg/mL (≈ 11.8 mM) | pKb [31]: 10.2 | IC50 (Cytochrome P450 3A4): > 50.1 µM | half-life [32]: > 5 h
